How the values were obtained:
Format in all cases: in vivo
[1] = test system: Zymoseptoria tritici strain Zt 61; assay: In planta preventive efficacy on wheat cv. Alixan against Zymoseptoria tritici strain Zt 61; parameters: fungicide efficacy: concentration or dose not given beside the values; settings: for Disease Severity Intensity: % of length of 2nd leaf blade, preventive 24 h; for AUDPC: control 1194.9
Description: (§1) A series of experiments were conducted to evaluate the efficacy of flumetylsulforim (ADF-16) for treating different strains of Zymoseptoria tritici in comparison with commercially available fungicides. Table 1 describes the Z. tritici strains used in this study and Table 2 describes the fungicides used in this study.
(§2) Winter wheat plants cv. Alixan (Limagrain) at the BBCH 12 growth stage were treated preventively with sterile distilled water (control), ADF-16, penthiopyrad, metconazole or tebuconazole at the rates described in Table 2 with a hand sprayer at 2 bars.
(§3) After treatment, wheat plants were left to dry at room temperature for 1 hour and then placed in a climatic chamber: temperature of 24 °C day/18 °C night-photoperiod of 16 h light/8 h dark and a relative humidity of 65%.
(§4) Untreated or treated whole wheat plants were inoculated 24-hours post-treatment with a calibrated pycnospore suspension of Z. tritici strains Zt StA, Zt 61, Zt 99, Zt 20, Zt 19-52, and Zt 38-02. Three replicates (pots) of 6 wheat plants each were used for each condition tested.
(§5) After inoculation, pots were transferred in a climatic chamber: temperature of 20 °C day/17 °C night—photoperiod of 16 h light/8 h dark and controlled relative humidity.
(§6) Disease assessments were carried out at 15 days post inoculation (dpi), 21 dpi and 28 dpi by measuring the length of the necrosis on the second leaf blade. The intensity of infection was then determined as a percentage of the total length of 2nd leaf blade.
(§7) The fungicide efficacies were determined from the Area Under the Disease Progress Curve (AUDPC) values and expressed as a percentage of the untreated control.
(§8) The AUDPC is a quantitative measure of disease intensity over time. The most commonly used method for estimating the AUDPC, the trapezoidal method, is performed by multiplying the average disease intensity between each pair of adjacent timepoints by the corresponding time interval and this for each time interval. The AUDPC is determined with the following formula by adding all of the trapezoids:
(§9) [formula] • yi=disease severity at the ith observation • ti=time (days) at the ith observation • N=total number of observations

[2] = test system: Zymoseptoria tritici strain Zt 19-52; assay: In planta preventive efficacy on wheat cv. Alixan against Zymoseptoria tritici strain Zt 19-52; settings: % of length of 2nd leaf blade, preventive 24 h
Description: as §1, §2, §3, §4, §5, §6, §7, §8, §9

[3] = test system: Zymoseptoria tritici strain Zt 38-02; assay: In planta preventive efficacy on wheat cv. Alixan against Zymoseptoria tritici strain Zt 38-02; settings: for Disease Severity Intensity: % of length of 2nd leaf blade, preventive 24 h; for AUDPC: control 1261.4
Description: as §1, §2, §3, §4, §5, §6, §7, §8, §9

[4] = test system: Zymoseptoria tritici strain Zt 99; assay: In planta preventive efficacy on wheat cv. Alixan against Zymoseptoria tritici strain Zt 99; settings: for Disease Severity Intensity: % of length of 2nd leaf blade, preventive 24 h; for AUDPC: control 1352.9
Description: as §1, §2, §3, §4, §5, §6, §7, §8, §9

[5] = test system: Zymoseptoria tritici strain Zt 20; assay: In planta preventive efficacy on wheat cv. Alixan against Zymoseptoria tritici strain Zt 20; settings: % of length of 2nd leaf blade, preventive 24 h
Description: as §1, §2, §3, §4, §5, §6, §7, §8, §9

[6] = test system: Zymoseptoria tritici strain Zt StA; assay: In planta preventive efficacy on wheat cv. Alixan against Zymoseptoria tritici strain Zt StA (control strain, sensitive); settings: for Disease Severity Intensity: % of length of 2nd leaf blade, preventive 24 h; for AUDPC: control 781.6
Description: as §1, §2, §3, §4, §5, §6, §7, §8, §9

[7] = 15 dpi, rate N (g a.i./ha): ADF-16 100, penthiopyrad 200, metconazole 90, tebuconazole 250, control also no disease
[8] = 15 dpi, rate N/2.5 (g a.i./ha): ADF-16 40, penthiopyrad 80, metconazole 36, tebuconazole 100, control also no disease
[9] = rate N (g a.i./ha): ADF-16 100, penthiopyrad 200, metconazole 90, tebuconazole 250
[10] = rate N/2.5 (g a.i./ha): ADF-16 40, penthiopyrad 80, metconazole 36, tebuconazole 100

CC(C)(C)C(O)(CCc1ccc(Cl)cc1)Cn1cncn1 (stereo not drawn) [Tebuconazole]
Disease Severity Intensity [1, 7]: No disease
Disease Severity Intensity [1, 8]: No disease
Disease Severity Intensity ([1]; 21 dpi, rate N (g a.i./ha): ADF-16 100, penthiopyrad 200, metconazole 90, tebuconazole 250, control 63.3): 1.5 +/− 0.9d %
Disease Severity Intensity ([1]; 21 dpi, rate N/2.5 (g a.i./ha): ADF-16 40, penthiopyrad 80, metconazole 36, tebuconazole 100, control 63.3): 11.8 +/− 3.6c %
Disease Severity Intensity ([1]; 28 dpi, rate N (g a.i./ha): ADF-16 100, penthiopyrad 200, metconazole 90, tebuconazole 250, control 88.1): 30.7 +/− 5.3d %
Disease Severity Intensity ([1]; 28 dpi, rate N/2.5 (g a.i./ha): ADF-16 40, penthiopyrad 80, metconazole 36, tebuconazole 100, control 88.1): 54.3 +/− 6.2c %
fungicide efficacy ([1]; higher application rates (N)): ≥ 85%
fungicide efficacy ([1]; lower application rates (N/2.5)): ≤ 70%
Efficacy (from AUDPC, percentage of the untreated control) [1, 9]: 89.5%
AUDPC [1, 9]: 125.1 ± 46.8 days
Efficacy (from AUDPC, percentage of the untreated control) [1, 10]: 70.3%
AUDPC [1, 10]: 354.9 +/− 103.8bc
Disease Severity Intensity ([2]; 15 dpi, rate N (g a.i./ha): ADF-16 100, penthiopyrad 200, metconazole 90, tebuconazole 250, control 22.0): 0.0 +/− 0.0b %
Disease Severity Intensity ([2]; 15 dpi, rate N/2.5 (g a.i./ha): ADF-16 40, penthiopyrad 80, metconazole 36, tebuconazole 100, control 22.0): 0.0 +/− 0.0b %
Disease Severity Intensity ([2]; 21 dpi, rate N (g a.i./ha): ADF-16 100, penthiopyrad 200, metconazole 90, tebuconazole 250, control 81.7): 0.2 +/− 0.2c %
Disease Severity Intensity ([2]; 21 dpi, rate N/2.5 (g a.i./ha): ADF-16 40, penthiopyrad 80, metconazole 36, tebuconazole 100, control 81.7): 0.7 +/− 0.4bc %
Disease Severity Intensity ([2]; 28 dpi, rate N (g a.i./ha): ADF-16 100, penthiopyrad 200, metconazole 90, tebuconazole 250, control 91.0): 7.9 +/− 2.2cd %
Disease Severity Intensity ([2]; 28 dpi, rate N/2.5 (g a.i./ha): ADF-16 40, penthiopyrad 80, metconazole 36, tebuconazole 100, control 91.0): 13.1 +/− 2.3c %
Disease Severity Intensity ([3]; 15 dpi, rate N (g a.i./ha): ADF-16 100, penthiopyrad 200, metconazole 90, tebuconazole 250, control 36.0): 0.0 +/− 0.0b %
Disease Severity Intensity ([3]; 15 dpi, rate N/2.5 (g a.i./ha): ADF-16 40, penthiopyrad 80, metconazole 36, tebuconazole 100, control 36.0): 0.0 +/− 0.0b %
Disease Severity Intensity ([3]; 21 dpi, rate N (g a.i./ha): ADF-16 100, penthiopyrad 200, metconazole 90, tebuconazole 250, control 84.3): 9.3 +/− 1.9e %
Disease Severity Intensity ([3]; 21 dpi, rate N/2.5 (g a.i./ha): ADF-16 40, penthiopyrad 80, metconazole 36, tebuconazole 100, control 84.3): 62.2 +/− 4.5bc %
Disease Severity Intensity ([3]; 28 dpi, rate N (g a.i./ha): ADF-16 100, penthiopyrad 200, metconazole 90, tebuconazole 250, control 95.7): 45.1 +/− 4.0d %
Disease Severity Intensity ([3]; 28 dpi, rate N/2.5 (g a.i./ha): ADF-16 40, penthiopyrad 80, metconazole 36, tebuconazole 100, control 95.7): 93.3 +/− 0.9ab %
Efficacy (from AUDPC, percentage of the untreated control) [3, 9]: 82.7%
AUDPC [3, 9]: 218.1 ± 3.5 days
Efficacy (from AUDPC, percentage of the untreated control) [3, 10]: 42.3%
AUDPC [3, 10]: 728.1 +/− 31.6b
Disease Severity Intensity ([4]; 15 dpi, rate N (g a.i./ha): ADF-16 100, penthiopyrad 200, metconazole 90, tebuconazole 250, control 47.9): 0.0 +/− 0.0d %
Disease Severity Intensity ([4]; 15 dpi, rate N/2.5 (g a.i./ha): ADF-16 40, penthiopyrad 80, metconazole 36, tebuconazole 100, control 47.9): 0.0 +/− 0.0d %
Disease Severity Intensity ([4]; 21 dpi, rate N (g a.i./ha): ADF-16 100, penthiopyrad 200, metconazole 90, tebuconazole 250, control 81.0): 1.5 +/− 0.8f %
Disease Severity Intensity ([4]; 21 dpi, rate N/2.5 (g a.i./ha): ADF-16 40, penthiopyrad 80, metconazole 36, tebuconazole 100, control 81.0): 12.1 +/− 1.7e %
Disease Severity Intensity ([4]; 28 dpi, rate N (g a.i./ha): ADF-16 100, penthiopyrad 200, metconazole 90, tebuconazole 250, control 92.2): 12.8 +/− 2.5d %
Disease Severity Intensity ([4]; 28 dpi, rate N/2.5 (g a.i./ha): ADF-16 40, penthiopyrad 80, metconazole 36, tebuconazole 100, control 92.2): 58.7 +/− 4.6c %
Efficacy (from AUDPC, percentage of the untreated control) [4, 9]: 96.0%
AUDPC [4, 9]: 54.0 ± 3.3 g
Efficacy (from AUDPC, percentage of the untreated control) [4, 10]: 79.0%
AUDPC [4, 10]: 283.9 +/− 30.0f^
Disease Severity Intensity [5, 7]: No disease
Disease Severity Intensity [5, 8]: No disease
Disease Severity Intensity ([5]; 21 dpi, rate N (g a.i./ha): ADF-16 100, penthiopyrad 200, metconazole 90, tebuconazole 250, control 77.2): 0.6 +/− 0.5de %
Disease Severity Intensity ([5]; 21 dpi, rate N/2.5 (g a.i./ha): ADF-16 40, penthiopyrad 80, metconazole 36, tebuconazole 100, control 77.2): 4.6 +/− 1.3c %
Disease Severity Intensity ([5]; 28 dpi, rate N (g a.i./ha): ADF-16 100, penthiopyrad 200, metconazole 90, tebuconazole 250, control 95.5): 17.1 +/− 1.9e %
Disease Severity Intensity ([5]; 28 dpi, rate N/2.5 (g a.i./ha): ADF-16 40, penthiopyrad 80, metconazole 36, tebuconazole 100, control 95.5): 54.8 +/− 3.7c %
Disease Severity Intensity [6, 7]: No disease
Disease Severity Intensity [6, 8]: No disease
Disease Severity Intensity ([6]; 21 dpi, rate N (g a.i./ha): ADF-16 100, penthiopyrad 200, metconazole 90, tebuconazole 250, control 36.5): 0.0 +/− 0.0b %
Disease Severity Intensity ([6]; 21 dpi, rate N/2.5 (g a.i./ha): ADF-16 40, penthiopyrad 80, metconazole 36, tebuconazole 100, control 36.5): 0.0 +/− 0.0b %
Disease Severity Intensity ([6]; 28 dpi, rate N (g a.i./ha): ADF-16 100, penthiopyrad 200, metconazole 90, tebuconazole 250, control 77.4): 0.0 +/− 0.0b %
Disease Severity Intensity ([6]; 28 dpi, rate N/2.5 (g a.i./ha): ADF-16 40, penthiopyrad 80, metconazole 36, tebuconazole 100, control 77.4): 0.0 +/− 0.0b %
Efficacy (from AUDPC, percentage of the untreated control) [6, 9]: 100%
AUDPC [6, 9]: 0.0 +/− 0.0b
Efficacy (from AUDPC, percentage of the untreated control) [6, 10]: 100%
AUDPC [6, 10]: 0.0 +/− 0.0b

From patent publication US20260372303A1, “5-Fluoro-4-Imino-3-Methyl-1-Tosyl-3, 4-Dihydropyrimidin-2(1H) -One for Fungicide-Resistant Fungus” (priority 2022, published 2026)
